# Like-named read-outs stand apart in the source and are kept apart here. Where a SMILES comes first, the peptide text is derived from it. Bridges are numbered along the chain shown (N, C = ends). [ ]: non-standard residue; d: D form. Orn(iPr) = CC(C)NCCC[C@H](N)C(=O)O; Aad = N[C@@H](CCCC(=O)O)C(=O)O
# Legend:
# [1] = tested on: non-atherosclerotic (NA) and atherosclerotic (A) rabbits; assay: Hemodynamic dose-response to cumulative intravenous infusion rates in anesthetized rabbits; type: in vivo, New Zealand White rabbits; conditions: incremental i.v. infusion rates, nonlinear regression, mean ± standard error of the mean
# Protocol: Thirty male New Zealand White rabbits (2.6–3.6 kg, Centre d’élevage G. Achard de la Vente, St Mars d'Egrenne, France), aged 3–4 months were individually housed in stainless steel mesh cages (500 × 600 × 400 mm) at 19–25°C and ≥35% humidity with a 12-h light/dark cycle. Each animal received Bolapin (Huttepain Bouix, Le Mans, France) at approximately 60 g/day as standard diet (non-atherosclerotic animals) or supplemented with1% cholesterol for 6 weeks to induce atherosclerosis (both n = 15). The animals were fasted for at least 12 h before clinical laboratory blood sampling, on the day of the experiment, and before scheduled necropsy. Water was supplied ad libitum. On completion of cholesterol feeding, the animals were prepared surgically to determine cardiovascular variables and infused intravenously with selepressin, arginine vasopressin (AVP), or norepinephrine (NE) at incremental rates.
# (§1) Following overnight fasting, the rabbits were pre-anesthetized intramuscularly using a mixture of 15 mg/kg ketamine hydrochloride (Imalgène 500®, Rhône Mérieux, Lyon, France) and 0.7 mg/kg xylazine hydrochloride (Rompun® 2%, KVP, Kiel, Germany). The animals were tracheotomized and maintained under isoflurane anesthesia (2% v/v isoflurane in oxygen [isoflurane: AErrane®, Baxter, Maurepas, France]). The electrocardiogram was monitored continuously (Lead II derivation) during surgery. A femoral vein was cannulated using a polyvinyl chloride catheter to administer selepressin, AVP, NE, or vehicle while a carotid artery was cannulated for blood sampling. A Millar catheter-tip transducer was introduced into the femoral artery to determine arterial pressure. The animals were infused intravenously using Ringer lactate (Lavoisier, Paris, France) at 2 mL/h.
# A left parasternal image window was used to obtain a long-axis view, visualizing the entire ascending aorta, the innominate artery branch, and the left common carotid arteries in the same plane. Prior to dosing, all of the animals (atherosclerotic [A] and non-atherosclerotic [NA]) were examined by 2-dimensional ultrasonography using a 15-MHz linear probe. The thoracic aorta was visualized at up to 30 frames/s using a 120-μm axial resolution. An adequate penetration depth was set to several centimeters beyond the far wall of the ascending aorta. Intima-media thickness (IMT) immediately proximal to the innominate artery branch site was determined in a consistent manner in each animal using the arterial branching points as anatomic landmarks.
# Doppler ultrasonographic measurements were performed using Acuson Séquoia 526 color Doppler equipment (Siemens, Saint-Denis, France). Aortic flow measurements were performed from a trans-hepatic view for perfect alignment (cos(theta) of the Doppler equation ≈1). Time velocity integrals and aortic diameter were determined for each time point by aortic echography.
# Aortic blood flow (ABF, mL/min) was calculated according to the following formula: ABF (mL/min) = SV (mL/beat)×HR (beats/min) where:
# • HR: heart rate • SV (stroke volume, mL) = ITVAo (cm) × SAo (cm^2) • ITVAo: Integral time velocity of the aorta evaluated from the mean of three to five consecutive velocity waveforms (i.e., three to five heartbeats) • SAo (Section of the aorta) = (π × DAo^2)/4 • DAo: Aortic diameter (cm) determined by aortic echography close to the maximal velocity measurement site.
# Before treatment, the animals (n = 5 for each drug and for A vs. NA) were infused with the corresponding vehicle (10 mM acetate buffer at 9% v/v in 0.9% NaCl for selepressin, 10 mM acetate buffer at 0.3% v/v in 0.9% NaCl for AVP, and in 0.9% NaCl for NE) at 1 mL.kg^−1.h^−1 for 15 min. Selepressin acetate, AVP, and NE were administered via the femoral vein. […]
# [2] = Plasma bioanalysis at the time of maximum hemodynamic effect; conditions: New Zealand White, rabbit, in vivo, iv; atherosclerotic (A) rabbits; incremental i.v. infusion; LC-MS/MS for selepressin and AVP, LC with colorimetric detection for NE; mean ± standard deviation, n = 5; SD; read-out: maximum plasma concentration
# Protocol: Blood for bioanalysis was sampled from all of the animals both before the first infusion (vehicle control) and for each infusion rate at the time of maximum hemodynamic effect. Quantification of selepressin, AVP, or NE in plasma samples was performed using validated liquid chromatography with tandem mass spectrometric detection for selepressin and AVP and validated liquid chromatography with colorimetric detection for NE. All of the animals treated with selepressin, AVP, or NE were exposed in a dose-dependent manner, with no difference between A and NA animals. The maximum selepressin plasma concentrations (mean ± standard deviation) were 329±52 and 367±48 ng/mL for A and NA animals, respectively, for AVP they were 122±27 and 100±46.2 ng/mL for A and NA, respectively, and for NE they were 301±126 and 345±164 ng/mL for A and NA, respectively.
# [3] = tested on: non-atherosclerotic (NA) and atherosclerotic (A) rabbits; assay: Electrocardiogram monitoring during incremental infusion rates; type: in vivo, New Zealand White rabbits; conditions: A and NA animals, NE finding at the highest rate tested (1 μg.kg^−1.min^−1)
# Protocol: as §1
# AP and electrocardiogram signals were amplified (Hugo Sachs Elektronik, March-Hugstetten, Germany) and recorded continuously using a computerized data acquisition system (Notocord, Croissy-sur-Seine, France) with acquisition rates of 500 and 1000 Hz for arterial pressure and electrocardiogram, respectively.
# [4] = tested on: non-atherosclerotic (NA) and atherosclerotic (A) rabbits; assay: Serum biomarkers of cardiac injury (ASAT, CK, cardiac troponin I); type: in vivo, New Zealand White rabbits; conditions: at the end of administration of the highest infusion rate, n = 5
# [5] = healthy rats; ref unpublished results; cited from earlier work
# [6] = healthy dogs; ref unpublished results; cited from earlier work
# [7] = tested on: healthy dogs; conditions: cited from earlier work
# [8] = atherosclerotic (A) rabbits, SEM
# [9] = non-atherosclerotic (NA) rabbits
# [10] = non-atherosclerotic (NA) rabbits, SEM
Structure (SMILES),"Log ED50, aortic blood flow (ABF) [1, 8]","Log ED50, diastolic arterial pressure (DAP) [1, 8]","Log ED50, heart rate (HR) [1, 8]","Log ED50, mean arterial pressure (MAP) [1, 8]","Log ED50, stroke volume (SV) [1, 8]","Log ED50, systolic arterial pressure (SAP) [1, 8]","Log ED50, mean arterial pressure (MAP) [1, 9]","Log ED50, aortic blood flow (ABF) [1, 10]","Log ED50, diastolic arterial pressure (DAP) [1, 10]","Log ED50, heart rate (HR) [1, 10]","Log ED50, stroke volume (SV) [1, 10]","Log ED50, systolic arterial pressure (SAP) [1, 10]",Cmax [2] [ng/mL],electrocardiogram abnormalities (including ST segment elevation) [3],serum aspartate aminotransferase activity vs baseline ([4]; atherosclerotic (A) rabbits),"serum aspartate aminotransferase activity vs baseline [4, 9]","Log ED50, mean arterial pressure (MAP) [1, 10]",half-life [5],half-life [6] [min],coronary ischemic liability [7]
"NC(=O)CC[C@@H]1NC(=O)[C@H](Cc2ccccc2)NC(=O)[C@H](Cc2ccc(O)cc2)NC(=O)[C@@H](N)CSSC[C@@H](C(=O)N2CCC[C@H]2C(=O)N[C@@H](CCCN=C(N)N)C(=O)NCC(N)=O)NC(=O)[C@H](CC(N)=O)NC1=O [AVP, arginine vasopressin]",−8.4±0.2 log(ng.kg^-1.min^-1),−8.7±1.1 log(ng.kg^-1.min^-1),−8.5±0.5 log(ng.kg^-1.min^-1),−8.6±1.4 log(ng.kg^-1.min^-1),−7.9±5.1 log(ng.kg^-1.min^-1),−8.6±3.2 log(ng.kg^-1.min^-1),No fit,−8.1±0.5 log(ng.kg^-1.min^-1),−10.0±7.5 log(ng.kg^-1.min^-1),−8.6±0.2 log(ng.kg^-1.min^-1),−7.5±5.9 log(ng.kg^-1.min^-1),−6.6±1.9 log(ng.kg^-1.min^-1),122 ± 27,No electrocardiogram abnormalities,not significantly different from baseline,not significantly different from baseline,,,,
"NC[C@H](O)c1ccc(O)c(O)c1 [NE, norepinephrine]",−6.2±0.7 log(ng.kg^-1.min^-1),−5.8±0.4 log(ng.kg^-1.min^-1),−7.0 ±1.2 log(ng.kg^-1.min^-1),−5.7±0.3 log(ng.kg^-1.min^-1),−5.4±0.4 log(ng.kg^-1.min^-1),,,−6.5±0.4 log(ng.kg^-1.min^-1),−6.0±0.3 log(ng.kg^-1.min^-1),−6.9±0.9 log(ng.kg^-1.min^-1),−6.5±0.4 log(ng.kg^-1.min^-1),−6.1±0.2 log(ng.kg^-1.min^-1),,Some premature ventricular beats,,,−6.1±0.3 log(ng.kg^-1.min^-1),,,
"CC[C@H](C)[C@@H]1NC(=O)[C@H](Cc2ccccc2)NC(=O)[C@@H](N)CSSC[C@@H](C(=O)N2CCC[C@H]2C(=O)N[C@@H](CCCNC(C)C)C(=O)NCC(N)=O)NC(=O)[C@H](CC(N)=O)NC(=O)[C@H](CCCC(N)=O)NC1=O [Selepressin, selepressin] (H-CFI[Aad](NH2)NCP[Orn(iPr)]G-NH2; disulfide 1-6)",,,,,,,,,,,,,329 ± 52,No electrocardiogram abnormalities,not significantly different from baseline,not significantly different from baseline,,approximately 20 min,~30,no relevant coronary ischemic liability

# From article PMC5082805 (PLoS ONE, 2016)
